What was measured:
Assay in all cases: biochemical
Type in all cases: biochemical
[1] = molecular target: T1, 363 human kinases (including Aurora A/B/C) (Homo sapiens, UniProt Q9NWZ3); settings: IRAK4; for remaining activity at 0.1 µM: 100 nM; for remaining activity at 0.1 µM / remaining activity at 0.5 µM: read-out: % Enzyme Activity (relative to DMSO controls)
T1 sequence (Q9NWZ3 1-460): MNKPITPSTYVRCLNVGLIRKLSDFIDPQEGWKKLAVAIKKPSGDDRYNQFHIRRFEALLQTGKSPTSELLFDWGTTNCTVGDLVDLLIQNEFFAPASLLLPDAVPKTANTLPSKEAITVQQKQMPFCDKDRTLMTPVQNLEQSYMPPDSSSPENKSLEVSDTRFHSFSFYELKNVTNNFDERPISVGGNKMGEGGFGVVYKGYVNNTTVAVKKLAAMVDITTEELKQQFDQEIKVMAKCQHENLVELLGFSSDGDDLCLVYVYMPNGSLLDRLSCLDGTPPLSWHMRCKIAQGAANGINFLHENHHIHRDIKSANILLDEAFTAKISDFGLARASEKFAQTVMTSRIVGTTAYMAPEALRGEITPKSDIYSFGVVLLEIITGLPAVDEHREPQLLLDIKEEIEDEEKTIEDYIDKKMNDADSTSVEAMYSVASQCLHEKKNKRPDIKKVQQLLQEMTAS
Excerpt: (§1) However, the Aurora A/B selectivity ratios derived from our in vitro and in vivo data can be compared to prioritize inhibitors.

[2] = molecular target: T2, 363 human kinases (including Aurora A/B/C) (Homo sapiens, UniProt Q9Y2U5); settings: MEKK2; for remaining activity at 0.1 µM: 100 nM; for remaining activity at 0.1 µM / remaining activity at 0.5 µM: read-out: % Enzyme Activity (relative to DMSO controls)
T2 sequence (Q9Y2U5 1-619): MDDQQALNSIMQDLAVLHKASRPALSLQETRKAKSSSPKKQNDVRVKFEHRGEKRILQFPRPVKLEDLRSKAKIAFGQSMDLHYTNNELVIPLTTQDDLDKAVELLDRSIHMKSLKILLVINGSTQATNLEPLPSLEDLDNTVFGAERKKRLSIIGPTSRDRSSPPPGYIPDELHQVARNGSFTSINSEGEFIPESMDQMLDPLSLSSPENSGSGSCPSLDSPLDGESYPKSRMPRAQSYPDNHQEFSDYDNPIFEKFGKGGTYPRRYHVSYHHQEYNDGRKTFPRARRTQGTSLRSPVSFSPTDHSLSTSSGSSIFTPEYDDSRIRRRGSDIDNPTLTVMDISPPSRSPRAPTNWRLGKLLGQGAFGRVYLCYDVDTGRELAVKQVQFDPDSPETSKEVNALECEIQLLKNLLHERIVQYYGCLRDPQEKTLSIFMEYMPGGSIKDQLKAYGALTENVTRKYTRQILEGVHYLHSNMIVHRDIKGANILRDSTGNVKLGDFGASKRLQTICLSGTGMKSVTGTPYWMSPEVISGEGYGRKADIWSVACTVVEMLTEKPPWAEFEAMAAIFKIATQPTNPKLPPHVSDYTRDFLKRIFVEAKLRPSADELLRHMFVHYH
Excerpt: as §1

[3] = molecular target: 363 human kinases (including Aurora A/B/C) (Homo sapiens, UniProt P27448); settings: MARK3; for remaining activity at 0.1 µM: 100 nM; for remaining activity at 0.1 µM / remaining activity at 0.5 µM: read-out: % Enzyme Activity (relative to DMSO controls)
Excerpt: as §1

[4] = molecular target: 363 human kinases (including Aurora A/B/C) (Homo sapiens, UniProt Q14680); settings: MELK; for remaining activity at 0.1 µM: 100 nM; for remaining activity at 0.1 µM / remaining activity at 0.5 µM: read-out: % Enzyme Activity (relative to DMSO controls)
Excerpt: as §1

[5] = molecular target: 363 human kinases (including Aurora A/B/C) (Homo sapiens, UniProt P11309); settings: PIM1; for remaining activity at 0.1 µM: 100 nM; for remaining activity at 0.1 µM / remaining activity at 0.5 µM: read-out: % Enzyme Activity (relative to DMSO controls)
Excerpt: as §1

[6] = molecular target: 363 human kinases (including Aurora A/B/C) (Homo sapiens, UniProt P50613); settings: CDK7/cyclin H, [ATP] 50 µM; for remaining activity at 0.1 µM: 100 nM; for remaining activity at 0.1 µM / remaining activity at 0.5 µM: read-out: % Enzyme Activity (relative to DMSO controls)
Excerpt: as §1

[7] = molecular target: T3, 363 human kinases (including Aurora A/B/C) (Homo sapiens, UniProt O14757); settings: CHK1, [ATP] 20 µM; for remaining activity at 0.1 µM: 100 nM; for remaining activity at 0.1 µM / remaining activity at 0.5 µM: read-out: % Enzyme Activity (relative to DMSO controls)
T3 sequence (O14757 1-476): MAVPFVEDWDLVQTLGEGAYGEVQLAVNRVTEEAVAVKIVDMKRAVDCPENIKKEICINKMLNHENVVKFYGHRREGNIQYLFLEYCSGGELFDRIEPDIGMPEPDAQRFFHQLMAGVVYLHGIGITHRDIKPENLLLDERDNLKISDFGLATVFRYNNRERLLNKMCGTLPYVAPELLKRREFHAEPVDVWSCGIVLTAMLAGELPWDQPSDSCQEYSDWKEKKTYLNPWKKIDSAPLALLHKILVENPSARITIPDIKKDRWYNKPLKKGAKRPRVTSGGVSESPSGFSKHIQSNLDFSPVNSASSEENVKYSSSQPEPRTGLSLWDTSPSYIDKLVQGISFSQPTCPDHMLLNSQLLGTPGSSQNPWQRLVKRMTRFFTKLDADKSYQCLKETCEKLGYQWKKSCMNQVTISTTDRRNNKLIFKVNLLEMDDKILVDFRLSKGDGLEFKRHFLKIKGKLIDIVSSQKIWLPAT
Excerpt: as §1

Chain of 363 human kinases (including Aurora A/B/C) (Homo sapiens, UniProt P27448) (P27448 whole entry): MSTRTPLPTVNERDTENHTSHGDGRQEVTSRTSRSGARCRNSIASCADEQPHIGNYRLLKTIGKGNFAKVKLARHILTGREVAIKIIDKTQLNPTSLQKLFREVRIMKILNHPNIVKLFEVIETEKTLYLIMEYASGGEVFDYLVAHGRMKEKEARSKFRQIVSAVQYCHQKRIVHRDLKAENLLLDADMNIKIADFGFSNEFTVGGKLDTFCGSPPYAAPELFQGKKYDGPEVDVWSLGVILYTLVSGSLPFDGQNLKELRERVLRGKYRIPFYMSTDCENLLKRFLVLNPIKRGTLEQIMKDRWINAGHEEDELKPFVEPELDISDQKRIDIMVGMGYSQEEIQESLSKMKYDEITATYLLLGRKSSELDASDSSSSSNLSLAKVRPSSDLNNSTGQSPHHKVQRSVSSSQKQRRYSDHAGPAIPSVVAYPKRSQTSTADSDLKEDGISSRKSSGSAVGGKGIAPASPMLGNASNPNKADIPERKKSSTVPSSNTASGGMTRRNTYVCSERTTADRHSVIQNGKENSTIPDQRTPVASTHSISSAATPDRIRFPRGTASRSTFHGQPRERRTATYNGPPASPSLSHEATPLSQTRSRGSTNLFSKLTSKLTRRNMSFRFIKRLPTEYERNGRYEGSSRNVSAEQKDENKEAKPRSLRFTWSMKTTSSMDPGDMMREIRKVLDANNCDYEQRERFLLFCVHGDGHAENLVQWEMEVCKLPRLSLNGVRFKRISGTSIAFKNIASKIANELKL
Chain of 363 human kinases (including Aurora A/B/C) (Homo sapiens, UniProt Q14680) (Q14680 whole entry): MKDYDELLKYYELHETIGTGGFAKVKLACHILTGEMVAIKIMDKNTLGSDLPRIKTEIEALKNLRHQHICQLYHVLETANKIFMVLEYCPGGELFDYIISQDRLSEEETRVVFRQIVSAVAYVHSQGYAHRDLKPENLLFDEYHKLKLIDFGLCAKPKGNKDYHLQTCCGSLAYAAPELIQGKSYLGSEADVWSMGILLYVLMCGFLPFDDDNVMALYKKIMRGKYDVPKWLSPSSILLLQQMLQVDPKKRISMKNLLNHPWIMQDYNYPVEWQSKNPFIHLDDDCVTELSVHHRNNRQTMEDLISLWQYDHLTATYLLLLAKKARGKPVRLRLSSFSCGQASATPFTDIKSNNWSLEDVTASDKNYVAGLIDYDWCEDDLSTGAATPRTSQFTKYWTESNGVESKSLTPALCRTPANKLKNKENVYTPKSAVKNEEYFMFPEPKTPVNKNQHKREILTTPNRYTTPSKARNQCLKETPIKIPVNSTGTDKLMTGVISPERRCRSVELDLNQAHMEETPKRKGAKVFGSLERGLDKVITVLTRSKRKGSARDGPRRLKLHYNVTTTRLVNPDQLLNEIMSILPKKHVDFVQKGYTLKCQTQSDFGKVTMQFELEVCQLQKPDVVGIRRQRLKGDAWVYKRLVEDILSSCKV
Chain of 363 human kinases (including Aurora A/B/C) (Homo sapiens, UniProt P50613) (P50613 whole entry): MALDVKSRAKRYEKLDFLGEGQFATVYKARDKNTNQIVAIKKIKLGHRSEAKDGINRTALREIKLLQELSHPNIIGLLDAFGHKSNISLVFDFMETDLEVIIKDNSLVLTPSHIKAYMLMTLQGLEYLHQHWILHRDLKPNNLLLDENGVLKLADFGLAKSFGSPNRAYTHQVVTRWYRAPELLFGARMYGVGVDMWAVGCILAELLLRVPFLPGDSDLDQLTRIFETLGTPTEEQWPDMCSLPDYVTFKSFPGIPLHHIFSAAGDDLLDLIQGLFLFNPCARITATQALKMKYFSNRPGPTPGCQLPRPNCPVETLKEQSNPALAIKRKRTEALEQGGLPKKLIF
Chain of 363 human kinases (including Aurora A/B/C) (Homo sapiens, UniProt P11309) (P11309 whole entry): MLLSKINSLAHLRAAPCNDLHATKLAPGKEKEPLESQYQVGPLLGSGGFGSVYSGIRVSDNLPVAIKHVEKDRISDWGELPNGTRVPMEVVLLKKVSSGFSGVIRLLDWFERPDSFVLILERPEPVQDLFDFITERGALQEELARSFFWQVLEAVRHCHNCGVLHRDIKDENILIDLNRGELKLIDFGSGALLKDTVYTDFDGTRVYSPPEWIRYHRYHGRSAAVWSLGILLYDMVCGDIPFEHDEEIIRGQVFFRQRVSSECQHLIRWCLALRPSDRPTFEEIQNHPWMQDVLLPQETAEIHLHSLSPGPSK

| Compound | remaining activity at 0.1 µM [1] [%] | remaining activity at 0.1 µM [2] [%] | remaining activity at 0.1 µM [3] [%] | remaining activity at 0.1 µM [4] [%] | remaining activity at 0.1 µM [5] [%] | remaining activity at 0.1 µM [6] [%] | remaining activity at 0.1 µM [7] [%] | remaining activity at 0.5 µM ([1]; 500 nM) [%] | remaining activity at 0.5 µM ([2]; 500 nM) [%] | remaining activity at 0.5 µM ([3]; 500 nM) [%] | remaining activity at 0.5 µM ([4]; 500 nM) [%] | remaining activity at 0.5 µM ([5]; 500 nM) [%] | remaining activity at 0.5 µM ([6]; 500 nM) [%] | remaining activity at 0.5 µM ([7]; 500 nM) [%] | further results |
| --- | --- | --- | --- | --- | --- | --- | --- | --- | --- | --- | --- | --- | --- | --- | --- |
| CCn1cc(-c2ccnc3[nH]c(-c4cccc(CN(C)C)c4)cc23)c(-c2ccc(NC(=O)N(C)C)cc2)n1 [GSK1070916] | 84.3 | 81.7 | 97.2 | 95.7 | 102 | 109 | 98.7 | – | – | – | – | – | – | – | – |
| O=C(O)[C@]1(Cc2cccc(Nc3nccs3)n2)CC[C@@H](Oc2cccc(Cl)c2F)CC1 [MK-5108] | 47.6 | 102 | 98.4 | 109 | 92 | 95.9 | 103 | 25.6 | 83.9 | 107 | 112 | 83.8 | 112 | 148 | – |
| O=C(c1cccc(Cl)c1F)N1CCN(Cc2cccc(Nc3nccs3)n2)CC1 [MK-8745] | – | – | – | – | – | – | – | 79.4 | 97.5 | 111 | 95.9 | 101 | 110 | 105 | % Enzyme Activity (relative to DMSO controls) ([1]; 500 nM): 79.25%; % Enzyme Activity (relative to DMSO controls) ([2]; 500 nM): 96.27%; % Enzyme Activity (relative to DMSO controls) ([3]; 500 nM): 110.19%; % Enzyme Activity (relative to DMSO controls) ([4]; 500 nM): 93.77%; % Enzyme Activity (relative to DMSO controls) ([5]; 500 nM): 98.06%; % Enzyme Activity (relative to DMSO controls) ([6]; 500 nM): 107.62%; % Enzyme Activity (relative to DMSO controls) ([7]; 500 nM): 104.15% |
